Reference: ChEMBL document CHEMBL1137424, “Array synthesis of progesterone receptor antagonists: 3-aryl-1,2-diazepines” (Bioorg Med Chem Lett, 2006)
pIC50, pKi: −log10 of the molar value.

Tests used:
Progesterone receptor [1] = target: T1, Progesterone receptor (Homo sapiens, UniProt P06401); assay: Binding affinity at PR by fluorescence binding assay
T1 sequence (P06401 whole entry): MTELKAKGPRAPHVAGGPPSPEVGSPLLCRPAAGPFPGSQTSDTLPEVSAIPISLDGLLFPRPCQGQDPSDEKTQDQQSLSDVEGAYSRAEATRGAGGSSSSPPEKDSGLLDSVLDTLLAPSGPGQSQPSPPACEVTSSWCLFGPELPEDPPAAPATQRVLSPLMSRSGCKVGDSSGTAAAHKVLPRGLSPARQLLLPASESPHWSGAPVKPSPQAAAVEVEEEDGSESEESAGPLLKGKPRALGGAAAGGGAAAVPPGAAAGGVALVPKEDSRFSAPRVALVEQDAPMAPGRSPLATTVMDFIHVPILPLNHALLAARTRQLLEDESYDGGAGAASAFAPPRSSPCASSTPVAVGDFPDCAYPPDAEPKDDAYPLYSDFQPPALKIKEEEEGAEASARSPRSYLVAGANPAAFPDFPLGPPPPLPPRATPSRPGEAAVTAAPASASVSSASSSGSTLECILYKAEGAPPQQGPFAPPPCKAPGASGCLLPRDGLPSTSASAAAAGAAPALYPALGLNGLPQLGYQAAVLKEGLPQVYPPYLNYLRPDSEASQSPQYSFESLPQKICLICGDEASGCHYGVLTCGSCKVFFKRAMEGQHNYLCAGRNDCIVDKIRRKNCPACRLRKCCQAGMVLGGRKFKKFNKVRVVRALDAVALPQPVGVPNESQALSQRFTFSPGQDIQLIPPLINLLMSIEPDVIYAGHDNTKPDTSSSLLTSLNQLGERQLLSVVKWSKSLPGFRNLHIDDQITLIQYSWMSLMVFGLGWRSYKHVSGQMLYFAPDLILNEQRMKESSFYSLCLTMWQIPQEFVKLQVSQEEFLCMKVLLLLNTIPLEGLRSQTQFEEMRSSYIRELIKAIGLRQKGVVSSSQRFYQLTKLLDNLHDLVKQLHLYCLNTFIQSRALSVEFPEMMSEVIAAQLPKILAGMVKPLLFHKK

Progesterone receptor [2] = target: T1, Progesterone receptor; assay: Antagonist activity against PR beta-mediated transactivation of MMTV luciferase reporter gene in BacMam transduced progesterone-stimulated CV1 cells; assay type: functional, cell-based, CV-1

SMILES	pKi (Progesterone receptor [1])	pIC50 (Progesterone receptor [2])
N#Cc1ccc(C2=NN(S(=O)(=O)c3ccc(Br)s3)CCCC2)cc1	7.20	
O=S(=O)(c1ccc(Cl)cc1)N1CCCCC(c2cccc(F)c2)=N1	6.10	6.30
Cc1c(Cl)cccc1S(=O)(=O)N1CCCCC(c2cccc(Cl)c2)=N1	6.50	5.70
N#Cc1ccc(C2=NN(S(=O)(=O)c3ccccc3F)CCCC2)cc1	6.00	6.40
O=S(=O)(c1cccc(Cl)c1)N1CCCCC(c2ccc(Cl)cc2)=N1	6.20	5.90
O=S(=O)(c1ccc(Br)s1)N1CCCCC(c2cccc(Br)c2)=N1	7.20	6.60
O=S(=O)(c1ccc(Cl)s1)N1CCCCC(c2ccccc2Cl)=N1	6.70	6.20

Now those with a higher pKi (Progesterone receptor [1]), led by results:

pKi (Progesterone receptor [1])	pIC50 (Progesterone receptor [2])	SMILES
7.30	6.80	O=[N+]([O-])c1ccc(C2=NN(S(=O)(=O)c3ccc(OC(F)(F)F)cc3)CCCC2)cc1
7.30	6.70	O=S(=O)(c1ccc(Cl)cc1Cl)N1CCCCC(c2ccc(Cl)c(Cl)c2)=N1
7.40		O=S(=O)(c1ccc(Cl)s1)N1CCCCC(c2ccc(Cl)c(Cl)c2)=N1
7.60	6.50	O=S(=O)(c1ccc(Br)s1)N1CCCCC(c2ccc(Cl)c(Cl)c2)=N1
